Results as given in patent publication US20250353851A1, “PURINES AND METHODS OF THEIR USE” (Kineta, Inc., priority 2021, published 2025).
pIC50: −log10 of the molar value.

Biological target: T1, full-length human PIKFYVE (N-terminal GST-fusion) (Homo sapiens, UniProt Q9Y2I7, L932S/Q1183K/Q995L/S1033A/S696N/T998S)
T1 construct: A full-length human PIKFYVE [1-2098(end) amino acids; purchased Carna Biosciences; host or cells: baculovirus expression system
Test: PIKfyve Biochemical Assay (ADP-Glo Kinase assay, Carna Biosciences)
Protocol: PIKfyve Biochemical Assay. The biochemical PIKFyve inhibition assays were run by Carna Biosciences according to proprietary methodology based on the Promega ADP-Glo™ Kinase assay. […] GST-PIKFYVE was purified by using glutathione sepharose chromatography and used in an ADP-Glo™ Kinase assay (Promega). Reactions were set up by adding the test compound solution, substrate solution, ATP solution and kinase solution, each at 4× final concentrations. Reactions were prepared with assay buffer (50 mM MOPS, 1 mM DTT, pH7.2), mixed, and incubated in black 384 well polystyrene plates for 1 hour at room temperature. ADP-Glo™ reagent was then added for 40 minutes, followed by kinase detection reagent for an additional 40 minutes. The kinase activity was evaluated by detecting relative light units on a luminescence plate reader. Samples were run in duplicate from 10 μM to 3 nM. […] IC50 values were calculated from concentration vs % inhibition curves by fitting to a four-parameter logistic curve.
The biochemical PIKFyve inhibition assays were run by Carna Biosciences according to proprietary methodology based on the Promega ADP-Glo™ Kinase assay. […] The kinase activity was evaluated by detecting relative light units on a luminescence plate reader. […] IC50 values were calculated from concentration vs % inhibition curves by fitting to a four-parameter logistic curve. […]

T1 sequence (Q9Y2I7 whole entry S696N/L932S/Q995L/T998S/S1033A/Q1183K, the tested form may be a part): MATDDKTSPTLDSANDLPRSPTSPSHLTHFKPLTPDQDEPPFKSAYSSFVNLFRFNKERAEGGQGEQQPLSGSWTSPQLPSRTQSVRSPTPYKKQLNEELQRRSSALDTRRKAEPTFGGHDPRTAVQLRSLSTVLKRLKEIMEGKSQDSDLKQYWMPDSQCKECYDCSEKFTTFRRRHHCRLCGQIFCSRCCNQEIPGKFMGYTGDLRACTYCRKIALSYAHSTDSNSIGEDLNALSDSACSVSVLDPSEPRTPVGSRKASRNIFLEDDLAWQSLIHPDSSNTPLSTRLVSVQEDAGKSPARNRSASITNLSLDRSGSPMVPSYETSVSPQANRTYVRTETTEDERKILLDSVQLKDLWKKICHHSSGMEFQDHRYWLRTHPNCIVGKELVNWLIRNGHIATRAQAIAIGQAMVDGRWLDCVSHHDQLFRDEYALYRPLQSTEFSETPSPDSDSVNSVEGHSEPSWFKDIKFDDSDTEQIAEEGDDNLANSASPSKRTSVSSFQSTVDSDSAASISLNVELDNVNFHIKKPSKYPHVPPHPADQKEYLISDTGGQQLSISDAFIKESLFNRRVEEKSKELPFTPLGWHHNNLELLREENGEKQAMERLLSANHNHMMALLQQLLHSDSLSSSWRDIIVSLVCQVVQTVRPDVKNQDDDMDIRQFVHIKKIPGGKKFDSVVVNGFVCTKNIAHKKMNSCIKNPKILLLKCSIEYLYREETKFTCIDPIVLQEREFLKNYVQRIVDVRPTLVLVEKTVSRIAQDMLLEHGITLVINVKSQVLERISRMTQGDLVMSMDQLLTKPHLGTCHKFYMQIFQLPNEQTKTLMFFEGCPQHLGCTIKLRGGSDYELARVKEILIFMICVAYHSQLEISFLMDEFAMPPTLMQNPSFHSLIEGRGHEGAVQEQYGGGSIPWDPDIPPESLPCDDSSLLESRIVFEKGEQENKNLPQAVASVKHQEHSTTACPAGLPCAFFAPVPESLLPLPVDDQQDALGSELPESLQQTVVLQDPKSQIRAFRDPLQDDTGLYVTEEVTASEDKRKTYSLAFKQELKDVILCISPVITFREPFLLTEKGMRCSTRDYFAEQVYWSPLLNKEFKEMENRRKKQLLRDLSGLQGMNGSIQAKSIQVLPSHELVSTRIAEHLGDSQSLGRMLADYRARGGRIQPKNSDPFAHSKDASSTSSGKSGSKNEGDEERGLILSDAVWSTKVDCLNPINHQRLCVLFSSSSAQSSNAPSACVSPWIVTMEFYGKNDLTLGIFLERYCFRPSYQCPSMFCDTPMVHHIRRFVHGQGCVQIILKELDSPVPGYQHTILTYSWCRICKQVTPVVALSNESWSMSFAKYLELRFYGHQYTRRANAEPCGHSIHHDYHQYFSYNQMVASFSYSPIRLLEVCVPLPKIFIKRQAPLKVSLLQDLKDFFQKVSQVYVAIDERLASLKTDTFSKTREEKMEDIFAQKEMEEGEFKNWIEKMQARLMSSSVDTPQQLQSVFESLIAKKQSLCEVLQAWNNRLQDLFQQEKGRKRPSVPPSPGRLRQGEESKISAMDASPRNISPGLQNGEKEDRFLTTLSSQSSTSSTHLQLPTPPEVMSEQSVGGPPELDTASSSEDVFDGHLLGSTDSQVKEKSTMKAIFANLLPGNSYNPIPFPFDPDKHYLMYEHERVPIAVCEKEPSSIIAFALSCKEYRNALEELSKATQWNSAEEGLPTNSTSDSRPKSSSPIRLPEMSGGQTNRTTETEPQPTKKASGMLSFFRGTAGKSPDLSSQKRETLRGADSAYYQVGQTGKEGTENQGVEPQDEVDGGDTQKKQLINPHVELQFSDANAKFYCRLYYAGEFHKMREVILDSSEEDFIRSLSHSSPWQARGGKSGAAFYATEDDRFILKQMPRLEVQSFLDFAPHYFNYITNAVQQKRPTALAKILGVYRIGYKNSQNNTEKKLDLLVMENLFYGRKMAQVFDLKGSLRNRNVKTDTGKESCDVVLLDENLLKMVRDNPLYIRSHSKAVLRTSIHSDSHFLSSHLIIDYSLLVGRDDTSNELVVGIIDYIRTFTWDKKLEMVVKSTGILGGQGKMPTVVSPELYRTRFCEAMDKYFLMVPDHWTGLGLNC

CCn1c(C(C)O)nc2c(N3CCCCC3)nc(-c3cccc(-c4ccn(C)n4)c3)nc21 (stereo not shown) [Compound 339, 1-(9-ethyl-2-(3-(1-methyl-1H-pyrazol-3-yl)phenyl)-6-(piperidin-1-yl)-9H-purin-8-yl)ethan-1-ol]
pIC50: 5.36
